Test results taken from paper PMC7865522, “Analyzing Kinase Similarity in Small Molecule and Protein Structural Space to Explore the Limits of Multi-Target Screening” (Molecules, 2021).

What was measured:
EGFR [1] = molecular target: T1, EGFR (Homo sapiens, UniProt P00533); test: DiscoverX KINOMEscan competition binding assay; details: compound 10 µM; lower values = higher affinity; below 35% = significant binding
T1 construct: purchased DiscoverX (KINOMEscan service); host or cells: E. coli BL21-derived host (T7 phage) or HEK-293
Protocol: (§1) Ligand binding experiments for the molecules selected from Profiles 1 and 2 towards nine kinases (EGFR, ErbB2, LCK, CDK2, BRAF, MET, p38α, PI3K and VEGFR2) and for molecules selected from Profiles 3 and 4 towards four kinases (EGFR, ErbB2, BRAF and VEGFR2) were carried out by DiscoverX using the supplied protocol as described in the Supplementary Materials. Briefly, ligand affinity was measured by competition with a resin-bound standard ligand and washed-off kinase concentration was determined via qPCR.
(§2) Summarizing, binding of a compound to a kinase was tested in comparison to a control compound (see Table S2). […]
(§3) 1.1. DiscoverX kinase assay
(§4) For most assays, kinase-tagged T7 phage strains were grown in parallel in 24-well blocks in an E.coli host derived from the BL21 strain. E.coli were grown to log-phase and infected with T7 phage from a frozen stock (multiplicity of infection = 0.4) and incubated with shaking at 32°C until lysis (90-150 minutes). The lysates were centrifuged (6,000 x g) and ﬁltered (0.2µm) to remove cell debris.
(§5) The remaining kinases were produced in HEK-293 cells and subsequently tagged with DNA for qPCR detection. Streptavidin-coated magnetic beads were treated with biotinylated small molecule ligands for 30 minutes at room temperature to generate afﬁnity resins for the kinases. The liganded beads were blocked with excess biotin and washed with blocking buffer (SeaBlock [Pierce], 1% BSA, 0.05% Tween 20, 1 mM DTT) to remove unbound ligands and to reduce non-speciﬁc phage binding. Binding reactions were assembled by combining kinases, liganded afﬁnity beads, and test compounds in 1x binding buffer (20% SeaBlock, 0.17x PBS, 0.05% Tween 20, 6 mM DTT). Test compounds were prepared as 40x stocks in 100% DMSO and directly diluted into the assay. All reactions were performed in polypropylene 384-well plates in a ﬁnal volume of 0.02 ml. The assay plates were incubated at room temperature with shaking for 1 hour and the afﬁnity beads were washed with wash buffer (1x PBS, 0.05% Tween 20). The beads were then re-suspended in elution buffer (1x PBS, 0.05% Tween 20, 0.5 µM non-biotinylated afﬁnity ligand) and incubated at room temperature with shaking for 30 minutes. The kinase concentration in the eluates was measured by qPCR. […]
(§6) Table S2. Experimental % control values from the DiscoverX kinase assay. Compounds were tested against the nine kinases EGFR, ErbB2, LCK, CDK2, BRAF, MET, p38α, PI3K and VEGFR2, unless otherwise stated. Binding of kinase and compound were tested at a compound concentration of 10 µM and in comparison to a control compound. Lower values indicate a higher afﬁnity of the compound to the protein and values below 35% indicate signiﬁcant binding according to information of the CRO. […]
(§7) a Compounds were only tested against four kinases (EGFR, ErbB2, BRAF and VEGFR2). b Compound was selected independently from two docking proﬁles and tested separately during

LCK = molecular target: T2, LCK (Homo sapiens, UniProt P06239); test: DiscoverX KINOMEscan competition binding assay; details: compound 10 µM; lower values = higher affinity; below 35% = significant binding
T2 construct: purchased DiscoverX (KINOMEscan service); host or cells: E. coli BL21-derived host (T7 phage) or HEK-293
Protocol: as §1, §2, §3, §4, §5, §6, §7

p38α = molecular target: T3, p38α (Homo sapiens, UniProt Q16539); test: DiscoverX KINOMEscan competition binding assay; details: compound 10 µM; lower values = higher affinity; below 35% = significant binding
T3 construct: purchased DiscoverX (KINOMEscan service); host or cells: E. coli BL21-derived host (T7 phage) or HEK-293
Protocol: as §1, §2, §3, §4, §5, §6, §7

MET = molecular target: T4, MET (Homo sapiens, UniProt P08581); test: DiscoverX KINOMEscan competition binding assay; details: compound 10 µM; lower values = higher affinity; below 35% = significant binding
T4 construct: purchased DiscoverX (KINOMEscan service); host or cells: E. coli BL21-derived host (T7 phage) or HEK-293
Protocol: as §1, §2, §3, §4, §5, §6, §7

BRAF [2] = molecular target: T5, BRAF (Homo sapiens, UniProt P15056); test: DiscoverX KINOMEscan competition binding assay; details: compound 10 µM; lower values = higher affinity; below 35% = significant binding
T5 construct: purchased DiscoverX (KINOMEscan service); host or cells: E. coli BL21-derived host (T7 phage) or HEK-293
Protocol: as §1, §2, §3, §4, §5, §6, §7

ErbB2 [3] = molecular target: T6, ErbB2 (Homo sapiens, UniProt P04626); test: DiscoverX KINOMEscan competition binding assay; details: compound 10 µM; lower values = higher affinity; below 35% = significant binding
T6 construct: purchased DiscoverX (KINOMEscan service); host or cells: E. coli BL21-derived host (T7 phage) or HEK-293
Protocol: as §1, §2, §3, §4, §5, §6, §7

CDK2 = molecular target: T7, CDK2 (Homo sapiens, UniProt P24941); test: DiscoverX KINOMEscan competition binding assay; details: compound 10 µM; lower values = higher affinity; below 35% = significant binding
T7 construct: purchased DiscoverX (KINOMEscan service); host or cells: E. coli BL21-derived host (T7 phage) or HEK-293
Protocol: as §1, §2, §3, §4, §5, §6, §7

VEGFR2 = molecular target: T8, VEGFR2 (Homo sapiens, UniProt P35968); test: DiscoverX KINOMEscan competition binding assay; details: compound 10 µM; lower values = higher affinity; below 35% = significant binding
T8 construct: purchased DiscoverX (KINOMEscan service); host or cells: E. coli BL21-derived host (T7 phage) or HEK-293
Protocol: as §1, §2, §3, §4, §5, §6, §7

PI3K [4] = molecular target: T9, PI3K (Homo sapiens, UniProt P42336); test: DiscoverX KINOMEscan competition binding assay; set-up: purchased DiscoverX (KINOMEscan service); host or cells: E. coli BL21-derived host (T7 phage) or HEK-293; details: compound 10 µM; lower values = higher affinity; below 35% = significant binding
Protocol: as §1, §2, §3, §4, §5, §6, §7
Target sequence in this assay (P42336 whole entry): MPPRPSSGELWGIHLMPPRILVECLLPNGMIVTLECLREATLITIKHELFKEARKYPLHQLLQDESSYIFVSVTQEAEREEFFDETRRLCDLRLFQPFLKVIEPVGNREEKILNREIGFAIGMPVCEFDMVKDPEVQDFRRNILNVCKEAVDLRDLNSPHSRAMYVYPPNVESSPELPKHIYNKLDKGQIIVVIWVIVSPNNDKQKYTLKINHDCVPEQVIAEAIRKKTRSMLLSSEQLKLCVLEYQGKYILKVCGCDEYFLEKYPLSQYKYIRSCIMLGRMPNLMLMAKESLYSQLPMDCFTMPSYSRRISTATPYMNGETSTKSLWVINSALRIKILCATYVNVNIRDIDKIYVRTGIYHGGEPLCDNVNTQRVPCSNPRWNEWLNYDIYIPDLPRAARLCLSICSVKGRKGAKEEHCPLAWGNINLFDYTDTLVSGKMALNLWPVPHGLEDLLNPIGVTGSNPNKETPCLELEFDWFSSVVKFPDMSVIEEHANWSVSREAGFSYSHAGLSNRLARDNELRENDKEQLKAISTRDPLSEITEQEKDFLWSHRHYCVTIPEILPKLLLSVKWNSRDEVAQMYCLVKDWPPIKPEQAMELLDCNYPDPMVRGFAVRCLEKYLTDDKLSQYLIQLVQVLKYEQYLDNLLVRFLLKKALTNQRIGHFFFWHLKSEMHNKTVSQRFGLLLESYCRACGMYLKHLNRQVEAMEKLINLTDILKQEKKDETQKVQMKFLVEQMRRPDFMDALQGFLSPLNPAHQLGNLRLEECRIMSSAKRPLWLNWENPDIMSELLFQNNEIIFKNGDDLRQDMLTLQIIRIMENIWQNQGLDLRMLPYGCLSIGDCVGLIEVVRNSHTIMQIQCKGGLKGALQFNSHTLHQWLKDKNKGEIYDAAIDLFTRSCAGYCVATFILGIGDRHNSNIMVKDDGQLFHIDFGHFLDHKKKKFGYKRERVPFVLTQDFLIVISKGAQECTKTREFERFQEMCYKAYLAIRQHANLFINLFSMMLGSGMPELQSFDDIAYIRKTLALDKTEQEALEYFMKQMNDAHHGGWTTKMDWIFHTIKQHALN

EGFR [5] = molecular target: T1, EGFR; test: Eurofins in vitro kinase inhibition assay; assay type: biochemical; details: compound 20 µM; mean (SD); above 50% significant, 25-50% weak
Protocol: (§8) Kinase inhibition assays for EGFR, ErbB2, PI3K and BRAF were carried out by Eurofins Cerep following the protocols of Weber et al. (EGFR), Quian et al. (ErbB2), Sinnamon et al. (PI3K) and Kupcho et al. (BRAF). Briefly, except for PI3K, compounds were incubated with the respective kinase, ATP, and a substrate analog, and the effect of each compound on phosphorylation was measured. In the case of PI3K, the displacement of biotinylated PIP3 from a PIP3-binding complex by unlabelled PIP3 (produced from PIP2 by PI3K) was measured by Homogeneous Time Resolved Fluorescence (HTRF).
(§9) Finally, inhibition of the respective kinases is calculated as the percentage inhibition of control activity.
(§10) Table S3. Experimental results from the Euroﬁns assay. Inhibition of four kinases (EGFR, PI3K, ErbB2, BRAF) was measured at compound concentrations of 20 µM. Inhibition was calculated as % inhibition of control activity. According to CRO, values above 50% inhibition represent signiﬁcant inhibition, values above 25% weak inhibition effect and values below 25% as well as negative values are usually not signiﬁcant. Results are reported in mean (SD) format. […]
(§11) a Compound interfered with assay readout.

BRAF [6] = molecular target: T5, BRAF; test: Eurofins in vitro kinase inhibition assay; assay type: biochemical; details: compound 20 µM; mean (SD); above 50% significant, 25-50% weak
Protocol: as §8, §9, §10, §11

ErbB2 [7] = molecular target: T6, ErbB2; test: Eurofins in vitro kinase inhibition assay; assay type: biochemical; details: compound 20 µM; mean (SD); above 50% significant, 25-50% weak
Protocol: as §8, §9, §10, §11

PI3K [8] = molecular target: T9, PI3K; test: Eurofins in vitro kinase inhibition assay (HTRF, PIP3 displacement); assay type: biochemical; set-up: purchased Eurofins Cerep (contract assay); details: compound 20 µM; mean (SD); above 50% significant, 25-50% weak
Protocol: as §8, §9, §10, §11
Target sequence in this assay (P42336 whole entry): as above
Target sequence in this assay (P27986 whole entry partner): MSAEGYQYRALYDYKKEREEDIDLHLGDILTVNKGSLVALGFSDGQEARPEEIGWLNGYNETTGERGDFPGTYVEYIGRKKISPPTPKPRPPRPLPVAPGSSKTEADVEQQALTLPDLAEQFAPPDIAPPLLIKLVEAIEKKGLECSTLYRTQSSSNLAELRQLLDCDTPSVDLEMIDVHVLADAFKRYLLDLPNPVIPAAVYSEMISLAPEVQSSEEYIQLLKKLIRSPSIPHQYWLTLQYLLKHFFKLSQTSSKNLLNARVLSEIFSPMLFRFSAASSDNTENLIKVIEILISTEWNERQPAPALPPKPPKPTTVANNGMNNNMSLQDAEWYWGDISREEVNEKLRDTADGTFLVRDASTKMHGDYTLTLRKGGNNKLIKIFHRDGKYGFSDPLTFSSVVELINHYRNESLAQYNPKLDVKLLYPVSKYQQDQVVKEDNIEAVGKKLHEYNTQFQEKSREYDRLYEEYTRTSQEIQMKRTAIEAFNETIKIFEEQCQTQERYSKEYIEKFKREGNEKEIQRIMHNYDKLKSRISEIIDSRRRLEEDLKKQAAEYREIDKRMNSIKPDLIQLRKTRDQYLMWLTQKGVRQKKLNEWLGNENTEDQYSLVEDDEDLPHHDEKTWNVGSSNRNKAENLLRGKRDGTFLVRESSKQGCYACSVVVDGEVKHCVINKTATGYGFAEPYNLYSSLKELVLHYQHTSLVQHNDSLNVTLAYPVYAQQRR

T3 sequence (Q16539 whole entry): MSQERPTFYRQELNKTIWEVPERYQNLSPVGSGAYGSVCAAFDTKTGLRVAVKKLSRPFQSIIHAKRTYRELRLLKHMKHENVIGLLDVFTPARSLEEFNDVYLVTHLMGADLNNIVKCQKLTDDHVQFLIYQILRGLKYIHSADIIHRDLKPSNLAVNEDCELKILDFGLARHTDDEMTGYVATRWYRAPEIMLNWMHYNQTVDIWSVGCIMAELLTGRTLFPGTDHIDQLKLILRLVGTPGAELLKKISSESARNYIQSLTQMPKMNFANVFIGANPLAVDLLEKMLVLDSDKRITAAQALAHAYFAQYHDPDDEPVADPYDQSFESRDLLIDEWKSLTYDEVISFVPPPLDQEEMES
T1 sequence (P00533 25-1210): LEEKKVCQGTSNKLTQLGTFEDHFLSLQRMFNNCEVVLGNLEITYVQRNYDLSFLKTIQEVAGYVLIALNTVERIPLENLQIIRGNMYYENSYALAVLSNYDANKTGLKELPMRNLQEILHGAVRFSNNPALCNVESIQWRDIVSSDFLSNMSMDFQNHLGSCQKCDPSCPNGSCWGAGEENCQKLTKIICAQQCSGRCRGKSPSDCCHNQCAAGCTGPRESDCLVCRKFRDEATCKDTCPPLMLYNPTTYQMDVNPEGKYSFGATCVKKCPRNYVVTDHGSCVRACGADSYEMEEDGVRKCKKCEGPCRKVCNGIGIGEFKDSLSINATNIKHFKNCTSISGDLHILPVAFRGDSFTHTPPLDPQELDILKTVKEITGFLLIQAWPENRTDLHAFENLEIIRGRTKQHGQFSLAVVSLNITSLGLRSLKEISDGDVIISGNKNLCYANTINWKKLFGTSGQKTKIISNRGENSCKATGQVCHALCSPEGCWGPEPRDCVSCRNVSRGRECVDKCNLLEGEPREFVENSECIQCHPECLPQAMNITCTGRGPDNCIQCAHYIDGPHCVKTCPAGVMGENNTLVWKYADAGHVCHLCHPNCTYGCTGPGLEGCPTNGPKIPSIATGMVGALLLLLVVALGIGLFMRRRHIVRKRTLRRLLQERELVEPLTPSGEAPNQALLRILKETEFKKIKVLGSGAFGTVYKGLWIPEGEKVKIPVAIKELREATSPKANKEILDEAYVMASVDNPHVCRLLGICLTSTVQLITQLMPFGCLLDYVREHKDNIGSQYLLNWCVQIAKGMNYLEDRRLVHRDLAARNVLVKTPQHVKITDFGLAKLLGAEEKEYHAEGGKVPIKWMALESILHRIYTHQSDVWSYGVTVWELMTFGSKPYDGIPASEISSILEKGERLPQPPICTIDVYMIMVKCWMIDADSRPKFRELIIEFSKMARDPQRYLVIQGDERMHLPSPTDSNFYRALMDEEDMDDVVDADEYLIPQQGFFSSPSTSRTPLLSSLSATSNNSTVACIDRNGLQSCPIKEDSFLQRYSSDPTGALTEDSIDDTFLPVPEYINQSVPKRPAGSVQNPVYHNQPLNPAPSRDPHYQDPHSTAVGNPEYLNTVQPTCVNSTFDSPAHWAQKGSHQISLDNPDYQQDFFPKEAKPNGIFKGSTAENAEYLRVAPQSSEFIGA
T4 sequence (P08581 25-1390): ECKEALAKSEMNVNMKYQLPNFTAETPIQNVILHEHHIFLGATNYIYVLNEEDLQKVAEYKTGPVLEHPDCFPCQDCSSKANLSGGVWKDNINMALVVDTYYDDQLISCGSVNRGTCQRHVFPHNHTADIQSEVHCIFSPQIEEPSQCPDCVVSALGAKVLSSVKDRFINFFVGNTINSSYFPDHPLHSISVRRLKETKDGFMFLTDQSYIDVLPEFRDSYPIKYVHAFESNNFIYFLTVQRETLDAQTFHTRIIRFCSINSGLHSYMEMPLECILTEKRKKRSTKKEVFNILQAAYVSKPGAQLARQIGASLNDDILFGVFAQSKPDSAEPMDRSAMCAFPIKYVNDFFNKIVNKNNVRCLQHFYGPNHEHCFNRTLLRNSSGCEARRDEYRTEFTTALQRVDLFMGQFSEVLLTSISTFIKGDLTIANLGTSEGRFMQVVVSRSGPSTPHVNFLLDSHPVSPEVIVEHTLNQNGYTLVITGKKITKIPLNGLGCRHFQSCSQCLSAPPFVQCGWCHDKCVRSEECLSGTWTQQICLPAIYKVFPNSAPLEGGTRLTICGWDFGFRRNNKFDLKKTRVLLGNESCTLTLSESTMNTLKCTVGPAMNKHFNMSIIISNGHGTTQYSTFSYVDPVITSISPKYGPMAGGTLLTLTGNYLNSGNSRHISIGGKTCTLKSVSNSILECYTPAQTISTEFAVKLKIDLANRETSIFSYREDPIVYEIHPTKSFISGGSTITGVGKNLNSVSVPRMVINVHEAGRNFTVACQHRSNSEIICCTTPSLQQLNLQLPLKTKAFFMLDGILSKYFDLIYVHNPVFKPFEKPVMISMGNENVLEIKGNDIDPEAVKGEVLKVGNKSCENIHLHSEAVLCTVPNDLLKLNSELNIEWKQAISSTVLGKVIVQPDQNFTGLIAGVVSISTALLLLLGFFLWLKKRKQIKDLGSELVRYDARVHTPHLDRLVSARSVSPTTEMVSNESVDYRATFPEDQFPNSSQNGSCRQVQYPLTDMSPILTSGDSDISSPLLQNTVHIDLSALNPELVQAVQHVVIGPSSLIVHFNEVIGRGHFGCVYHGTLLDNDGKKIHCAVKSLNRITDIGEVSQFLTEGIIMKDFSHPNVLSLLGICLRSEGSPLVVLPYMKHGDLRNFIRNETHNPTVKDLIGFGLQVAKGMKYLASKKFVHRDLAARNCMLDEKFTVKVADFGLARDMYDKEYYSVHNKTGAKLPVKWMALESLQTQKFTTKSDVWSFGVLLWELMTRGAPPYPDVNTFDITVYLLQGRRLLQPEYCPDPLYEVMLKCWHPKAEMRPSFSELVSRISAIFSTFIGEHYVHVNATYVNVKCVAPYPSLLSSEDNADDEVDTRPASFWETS

Compound	% control, EGFR (DiscoverX) (EGFR [1]) [% control]	% control, LCK (DiscoverX) (LCK) [% control]	% control, p38α (DiscoverX) (p38α) [% control]	% control, MET (DiscoverX) (MET) [% control]	% control, BRAF (DiscoverX) (BRAF [2]) [% control]	% control, ErbB2 (DiscoverX) (ErbB2 [3]) [% control]	% control, CDK2 (DiscoverX) (CDK2) [% control]	% control, VEGFR2 (DiscoverX) (VEGFR2) [% control]	% control, PI3K (DiscoverX) (PI3K [4]) [% control]	% inhibition of control activity, EGFR (Eurofins) (EGFR [5])	% inhibition of control activity, BRAF (Eurofins) (BRAF [6])	% inhibition of control activity, ErbB2 (Eurofins) (ErbB2 [7])	% inhibition of control activity, PI3K (Eurofins) (PI3K [8])
CC(C)n1ccc(=O)nc1SC1CCN(c2ccccc2F)C1=O (centres unmarked) [DS99367]	93	100	91	87	100	100	100	100	100	17.3 (0.1) % inhibition	-19.6 (11.8) % inhibition	-3.3 (0.5) % inhibition	1.4 (0.1) % inhibition
COCCCNC(=O)c1nc2c3c4c(sc3ncn2n1)COC(C)(C)C4 [DS11689]	100	100	100	99	88	99	100	100	99	18.1 (7.9) % inhibition	-8.3 (20.8) % inhibition	0.1 (2.1) % inhibition	-0.2 (0.4) % inhibition
Cc1cc(=O)n2nc(N(C)CC(=O)NCc3cccs3)sc2n1 [DS72975]	96	100	100	78	100	87	100	99	100	19.8 (5.0) % inhibition	-12.4 (1.8) % inhibition	9.8 (21.9) % inhibition	-1.1 (2.1) % inhibition
CCOCCCNC(=O)c1nc2c3c4c(sc3ncn2n1)CC[C@@H](C)C4 [DS82066]	92	100	93	100	83	90	100	100	89	12.6 (1.9) % inhibition	-18.5 (1.8) % inhibition	-1.4 (0.8) % inhibition	3.6 (2.3) % inhibition
CN(C)S(=O)(=O)c1cccc(C2=N/C(=C\c3cccc(F)c3)C(=O)O2)c1 [DS74631]	97	87	83	100	100	95	100	100	100	11.3 (4.5) % inhibition	-22.8 (15.9) % inhibition	-4.6 (2.9) % inhibition	20 (5.2) % inhibition
C[C@H](COCC(F)(F)F)NC(=O)Cc1n[nH]c(=O)c2ccccc12 [DS04644]	100	96	100	100	97	100	99	100	100	3.4 (1.8) % inhibition	-14.7 (7.4) % inhibition	-7.4 (1.0) % inhibition	-2.8 (0.6) % inhibition
Cc1[nH]c2nc3c(c(=O)n(Cc4ccccc4)c(=O)n3C)n2c1C [DS62156]	90	100	97	87	95	96	100	100	66	16.6 (0.4) % inhibition	-6.3 (1.6) % inhibition	3.1 (3.3) % inhibition	1.5 (5.8) % inhibition
COc1ccc(-c2nn(C(C)=O)c3c2C(=O)CC(C)(C)C3)cc1 [DS18339]	97	89	99	100	100	100	100	97	100	15.3 (7.7) % inhibition	-21.8 (9.5) % inhibition	0.7 (1.1) % inhibition	-3.7 (0.3) % inhibition
